From patent US20240327339A1, “COMPOSITIONS AND METHODS FOR TREATING AND PREVENTING VIRAL INFECTIONS” (priority 2021, published 2024)
≈ marks a conversion by molar mass, not a printed value. Entries after “also recorded” stand apart in the source; their conditions may differ. Where two headings read alike, the source gives them in different places.

What was measured:
[1] = system: RSV A2; assay: In vitro probenecid inhibition assay, RSV A2 (plaque assay); type: cell-based, respiratory syncytial virus (RSV); conditions: for IC50 / IC90: human respiratory syncytial virus; for virus replication compared to control (DMSO only): Vero E6, HEp-2 and NHBE cells
[2] = system: RSV B1; assay: In vitro probenecid inhibition assay, RSV B1 (plaque assay); type: cell-based, respiratory syncytial virus (RSV); conditions: for IC50 / IC90: human respiratory syncytial virus; for IC90: up to 100 μM; for virus replication compared to control (DMSO only): Vero E6, HEp-2 and NHBE cells
[3] = system: Memphis-37; assay: In vitro probenecid inhibition assay, Memphis-37 (plaque assay); type: cell-based, human RSV strain A; conditions: for IC50 / IC90: human respiratory syncytial virus; for virus replication compared to control (DMSO only): Vero E6, HEp-2 and NHBE cells
[4] = system: RSV A2; assay: In vivo inhibition study, BALB/c mouse model of RSV infection; parameters: species or system BALB/c mice; conditions: 2 or 200 mg/kg i.p., 24 h before or 24 h after infection, days 3, 5, 7 pi
[5] = system: Mumps (Jones) virus; assay: Mumps assay in Vero-P cells; type: cell-based; conditions: MOI=0.1, FIG. 10
Text: (§1) Experiments Conducted in Vero-P Cells.

[6] = system: Zika (MR766) virus; assay: Zika assay in Vero-P cells; type: cell-based; conditions: MOI=0.1, FIG. 11
Text: as §1

[7] = system: influenza virus; assay: Influenza assays in A549 cells; type: cell-based
Protocol: Experiment Conducted in A549 Cells.
[…] with influenza virus (MOI=0.1) for 1 hour
The virus is plaqued in MDCK cells while studies are carried out in human respiratory epithelial cells.

[8] = system: Measles virus; assay: Measles virus syncytia immunostaining; type: cell-based
Protocol: (§2) Plate 4×10^4/well of Vero-E6 or Hep-2 cells to be 95-100% confluent the next day. The next day make fresh dilutions of Probenecid were made. From a stock concentration of 10 mM in 100% DMSO, dilutions were made with half DMSO and half DMEM with 4% BSA fraction. FBS inhibits some viruses. Media was decanted and dilutions of probenecid were added to cells. Controls: DMSO/Media mixture, Media with no Probenecid, Media with no virus. Probenecid dilutions were left on cells for 24 hrs. After 24 hrs, media was decanted and virus was added (MOI=0.01/well). Virus was diluted to MOI=0.01 per 100 uL with DMEM. Left virus inoculum on cells for 1 hr. After 1 hr, infection media was decanted and replaced with dilutions of Probenecid. For Immunostaining, plates were left for 24 hrs before fixing cells. For Plaque Assays, plates were left for 72 hrs before freezing at −80 C.
The immunostaining protocol generally included fixing cells with 4% formaldehyde in PBS (50 uL) for 15-20 min at room temp, rinsing cells 3× with PBS (100 uL), and optionally storing cells at 4° C. in PBS until ready to stain. Permeabilizing cells with 0.05% TritonX-100 in PBS (100 uL) for 10 min at room temp, rinsing cells 3× with PBS (100 uL), blocking with 3% BSA-PBS (100 uL) for 1 hr at 37° C. or overnight at 4° C. Blocking solution was removed and cells were incubated with primary antibody (mouse mAb uNP, Millipore MAB8906) at 1:10,000 dilution (100 uL) for 1 hour (antibody diluted in 3% BSA-PBS). Cells were washed 3× with KPL Buffer (100 uL), incubated for 45 min with secondary antibody (Goat uMouse conjugated with Alex flour 488) in the dark at 37° C. (antibody diluted in 3% BSA-PBS). Cells were washed 3× with KPL Buffer in the dark (100 uL), rapidly stained with DAPI (1 ug/mL) for 10 min in the dark, washed 3× with PBS in the dark and stored in 200 ul of PBS until visualization.
Experiments were designed to test the prophylactic effect of probenecid on measles virus infection. Cells were infected with measle virus with, or without, probenecid treatment and immunostained for syncytia. […]

[9] = system: Measles virus; assay: Measles virus plaque assay; type: cell-based; conditions: HEp2 and Vero cells treated before infection; MOI=0.01; 72 hours
Protocol: as §2
For plaque assays of probenecid treated cells, cells were treated with various concentrations of Probenecid before being infected with Measles virus (MOI=0.01). After 72 hours, cells were frozen until plaque assay. Plaque concentrations are recorded as log 10 PFU/mL.

[10] = system: A/WSN/33 (H1N1); assay: A/WSN/33 (H1N1) IC50 (Perwitasari et al.); type: cell-based; conditions: Influenza A virus; converted from 0.5 nM
[11] = Preliminary virology data used for pediatric simulations; conditions: virus not stated
Protocol: Simulations were also conducted in pediatric subjects. Allometric scaling based on body weights used as an empirical approach to predict concentrations in pediatric subjects. 10 mg/kg qd, 10 mg/kg bid, 20 mg/kg qd, 20 mg/kg bid dose was simulated. IC50 from preliminary virology data is 1 nM.

[12] = system: hMPV CAN83 (A2 strain); assay: hMPV challenge of BALB/c mice; type: in vivo; conditions: 24 h prior to or 24 h post infection; lungs 5 dpi; FIGS. 26A-26B
Protocol: BALB/c mice were prophylactically (24 h prior to) or post-infection (24 h post) (“treatment”) treated with probenecid at the indicated concentrations. Mice (n=5/sex/group) were challenged i.n. with 1e6 PFU hMPV CAN83 (A2 strain). Lungs were collected 5 dpi and a plaque assay performed. The results are illustrated in FIGS. 26A-26B.

[13] = system: adenovirus serotype 5 (Ad5); assay: Ad5 infection of A549 cells; type: cell-based; conditions: only limited conditions tested
[14] = system: SARS-CoV-2; conditions: 90% inhibition of COVID-19 viral replication; Investigator Brochure; read-out: IC90 level; cited from earlier work
[15] = system: A/WSN/33 (H1N1); conditions: Perwitasari et al. 2013; cited from earlier work
[16] = system: SARS-CoV-2; conditions: cited from earlier work
[17] = system: SARS-CoV-2; conditions: ten non-hospitalized patients, mild to moderate infection; 28 day; cited from earlier work
[18] = in vivo, cited from earlier work
[19] = system: E. coli; assay: Killing of free bacteria
[20] = system: Dengue Type 1 virus; assay: Dengue assay in Vero-P cells; conditions: MOI=0.1, FIG. 12
[21] = system: Burkholderia; assay: Bacterial replication in macrophage; conditions: macrophage-associated bacteria
[22] = system: SLC22A8 (OAT3) transcripts; assay: OAT3 expression in HEp-2 cells (qPCR); conditions: HEp-2 cells treated with IC90 of probenecid [7.2 uM] for 24 h
[23] = system: SARS-CoV-2; assay: SARS-CoV-2 IC90 (Investigator Brochure); conditions: Severe acute respiratory syndrome coronavirus 2, read-out: IC90 level corrected for 95% protein binding
[24] = system: RSV; conditions: cited from earlier work
[25] = Vero C1008, Prophylaxis (24 h before infection), Vero E6 cells
[26] = Vero C1008, Treatment (24 h after infection), Vero E6 cells
[27] = Prophylaxis (24 h before infection), HEp-2 cells
[28] = Prophylaxis (24 h before infection), NHBE cells
[29] = Treatment (24 h after infection), HEp-2 cells
[30] = Treatment (24 h after infection), NHBE cells

`CCCN(CCC)S(=O)(=O)c1ccc(C(=O)O)cc1` [Probenecid, 4-[(dipropylamino)sulfonyl] benzoic acid] showed an IC50 [1, 25] of 70 nM, an IC90 [1, 25] of 0.63 µM and an IC50 [1, 26] of 100 nM. For the same compound, the IC90 [1, 26] was 2.7 µM, the IC50 [1, 27] was 800 nM and the IC90 [1, 27] was 7.2 µM. For the same compound, the IC50 [1, 28] was 400 nM, the IC90 [1, 28] was 3.6 µM and the IC50 [1, 29] was 1200 nM. The IC90 [1, 29] was 10.8 µM, the IC50 [1, 30] was 300 nM and the IC90 [1, 30] was 2.7 µM. The “virus replication compared to control (DMSO only)” value ([1]; prophylaxis 24 h before RSV A2 infection, FIG. 1) was “significantly (**** p<0.0001) inhibited the virus replication”, the “virus replication compared to control (DMSO only)” value ([1]; treated 24 h after RSV A2 infection, FIG. 2) was “significantly (**** p<0.0001) inhibited the virus replication” and the IC50 [2, 25] was 850 nM. The IC90 [2, 25] was over 100 µM, the IC50 [2, 26] was 2000 nM and the IC90 [2, 26] was over 100 µM. The IC50 [2, 27] was 800 nM, the IC90 [2, 27] was over 100 µM and the IC50 [2, 28] was 800 nM. For the same compound, the IC90 [2, 28] was over 100 µM, the IC50 [2, 29] was 900 nM and the IC90 [2, 29] was over 100 µM. For the same compound, the IC50 [2, 30] was 1200 nM, the IC90 [2, 30] was over 100 µM and the “virus replication compared to control (DMSO only)” value ([2]; prophylaxis 24 h before RSV B1 infection, FIG. 3) was “significantly (**** p<0.0001) inhibited the virus replication”. The “virus replication compared to control (DMSO only)” value ([2]; treated 24 h after RSV B1 infection, FIG. 4) was “significantly (**** p<0.0001) inhibited the virus replication”, the IC50 [3, 25] was 30 nM and the IC90 [3, 25] was 270 nM. The IC50 [3, 26] was 400 nM, the IC90 [3, 26] was 3600 nM and the IC50 [3, 27] was 40 nM. It also gave an IC90 [3, 27] of 360 nM, an IC50 [3, 28] of 160 nM and an IC90 [3, 28] of 1440 nM. It also gave an IC50 [3, 29] of 500 nM, an IC90 [3, 29] of 4500 nM and an IC50 [3, 30] of 200 nM. The IC90 [3, 30] was 1800 nM, the “virus replication compared to control (DMSO only)” value ([3]; prophylaxis 24 h before Memphis-37 infection, FIG. 5) was “significantly (**** p<0.0001) inhibited the virus replication” and the “virus replication compared to control (DMSO only)” value ([3]; treated 24 h after Memphis-37 infection, FIG. 6) was “significantly (**** p<0.0001) inhibited the virus replication”. The “lung virus titers compared to control (PBS)” value ([4]; female BALB/c mice) was “significantly (p<0.0001) reduced lung virus titer; also recorded: significant (**** p<0.0001) reduction in lung viral titers”, the “lung virus titers compared to control (PBS)” value ([4]; male BALB/c mice) was “significantly (p<0.0001) reduced lung virus titer; also recorded: significant (**** p<0.0001) reduction in lung viral titers” and the “inhibition of virus replication” value [5] was “picomolar levels of probenecid were effective at inhibiting virus replication”. For the same compound, the “inhibition of virus replication” value [6] was “picomolar levels of probenecid were effective at inhibiting virus replication”, the IC50 for flu [7] was “in the picomolar range” and the syncytia per well ([8]; 1 uM Probenecid, 24 hrs, NP fluorescence stain) was “no syncytia were detected”. For the same compound, the “concentration also effective on MeV” value ([8]; Hep-2 cells, other assays) was 0.03 UM, the IC50 ([8]; Measles morbillivirus, probenecid dilution assay, FIG. 14A, read-out: IC50 (average syncytia per well)) was 0.8 nM and the plaque titers [9] was “below the limit of detection”. The IC50 [10] was 0.143 ng/mL (≈ 0.000501 µM), the IC50 [11] was 1 nM and the “effect on hMPV infection (lung plaque assay)” value [12] was “Prophylactically and Therapeutically Reduces Human Metapneumovirus (HMPV) Infection”. For the same compound, the effect on infection [13] was “did not statistically significantly reduce infection”, the IC90 [14] was 364 nM and the IC50 [15] was 0.5 nM. The “efficacy at treating SARS-CoV-2” value ([16]; hamsters, 2 mg/kg and 200 mg/kg) was “both effective at treating SARS-CoV-2 in hamsters in vivo”, the “effect on virus replication and inflammatory response” value ([16]; in vitro and pre-clinical hamster studies (WO 2021/207606)) was “block replication of the SARS-CoV-2 virus and the associated acute inflammatory response to the infection” and the patient symptoms [17] was “patient symptoms showed improvement”. For the same compound, the absorption ([18]; po) was “completely absorbed after oral administration”, the “time to peak plasma concentration” value ([18]; po) was 2 to 4 h and the half life [18] was 6 to 12 h. The half-life in plasma [18] was “less than 5 hr to more than 8 hr”, the killing of bacteria [19] was “did not kill bacteria” and the “inhibition of virus replication” value [20] was “picomolar levels of probenecid were effective at inhibiting virus replication”. For the same compound, the killing of bacteria [21] was “did not kill bacteria”, the “OAT3 Raw Ct Value” [22] was “undetectable levels of OAT3 transcripts; also recorded: No Ct” and the IC90 [23] was 2.08 µg/mL (≈ 7.29 µM).

In the case of `NC(=O)c1ncn([C@@H]2O[C@H](CO)[C@@H](O)[C@H]2O)n1` [Ribavirin], the therapeutic results ([24]; inhaled) is given as “mixed-to-poor results”.

In the case of “palivizumab: a humanized monoclonal antibody targeting the F protein”, the reduction of hospitalizations ([24]; treated high-risk infants, monthly administration) is given as “approximately 50%”.
